Experimental data taken from the supplement of paper PMC10627819.

Legend:
B. subtilis 168 [1] = test: Bliss interaction score (quartile over a dose matrix) (fitness difference); higher = more antagonism (negative = synergy)
Outline: (§1)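 At entry into stationary phase, OD595 was recorded and divided by the robust mean of the no-drug wells on that plate, with any value above 1 set to 1. This gives the fitness measure used throughout. Single-drug fitness was inferred from combination data, and the Bliss score, observed minus product-expected fitness, is shown as quartiles across technical, biological and donor/recipient replicates.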

S. pneumoniae D39V [2] = test: as above
Outline: as §1

S. aureus Newman [3] = test: as above
Outline: as §1

S. aureus DSM 20231 [4] = test: as above
Outline: as §1

B. subtilis 168 [5] = test: fitness (endpoint OD595 vs no drug) (fraction); higher = more growth
Outline: (§2)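 Background-subtracted growth curves were the basis for fitness, taken as the optical density at entry into stationary phase over the robust mean of no-drug control wells. A cap of 1 was applied. The curves came from OD595 readings every 30 min for 14 h at 37 °C, in 384-well plates seeded at OD595 0.01 with 30 µl, or 55 µl for S. pneumoniae.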

S. aureus DSM 20231 [6] = test: as above
Outline: as §2

S. pneumoniae D39V [7] = test: as above
Outline: as §2

S. aureus Newman [8] = test: as above
Outline: as §2
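For Bliss interaction score (quartile over a dose matrix) in this document: first quartile when negative (synergy) and third quartile when positive (antagonism).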

C[n+]1ccc(-c2cc[n+](C)cc2)cc1 [Paraquat] + COc1cc(Cc2cnc(N)nc2N)cc(OC)c1OC [Trimethoprim]
Conditions | Bliss interaction score
B. subtilis 168 [1] | -0.0973
S. aureus DSM 20231 [4] | 0.0513
S. aureus Newman [3] | -0.0902
S. pneumoniae D39V [2] | 0.0991

fitness, B. subtilis 168 [5], one replicate
Conditions | partner 0.1 µg/mL | partner 0.125 µg/mL | partner 0.2 µg/mL | partner 0.4 µg/mL | partner 1 µg/mL | partner 2 µg/mL
first compound 1.25 µg/mL | 0.944 | 0.737 | 0.744 | 0.526 | 0.309 | 0.332
first compound 2.5 µg/mL | 0.947 | 0.734 | 0.66 | 0.459 | 0.396 | 0.237
first compound 5 µg/mL | 0.873 | 0.626 | 0.642 | 0.358 | 0.068 | 0.0488

fitness
Conditions | first compound 1.25 µg/mL | first compound 2.5 µg/mL | first compound 5 µg/mL
B. subtilis 168 [5], partner 0.25 µg/mL | 0.683 | 0.604 | –
B. subtilis 168 [5], partner 0.5 µg/mL | 0.385 | – | 0.298
S. aureus DSM 20231 [6], partner 0.125 µg/mL | 0.715 | 0.741 | 0.68
S. aureus DSM 20231 [6], partner 0.25 µg/mL | 0.602 | 0.606 | 0.604
S. aureus DSM 20231 [6], partner 1 µg/mL | 0.0458 | 0.0312 | 0.0357

Cn1c2cccc(=O)c-2nc2ccccc21 [Pyocyanin] + CN(C)c1cc(NC(=O)CNC(C)(C)C)c(O)c2c1C[C@H]1C[C@H]3[C@H](N(C)C)C(O)=C(C(N)=O)C(=O)[C@@]3(O)C(O)=C1C2=O [Tigecycline]
Conditions | Bliss interaction score
B. subtilis 168 [1] | -0.04
S. aureus DSM 20231 [4] | -0.0925
S. aureus Newman [3] | 0.0936
S. pneumoniae D39V [2] | 0.0539

fitness
Conditions | first compound 0.325 µg/mL | first compound 0.65 µg/mL | first compound 1.25 µg/mL | first compound 1.3 µg/mL | first compound 2.5 µg/mL | first compound 5 µg/mL
B. subtilis 168 [5], partner 0.039 µg/mL | – | – | 0.956 | – | 0.903 | 0.786
B. subtilis 168 [5], partner 0.078 µg/mL | – | – | 0.953 | – | 0.876 | 0.747
B. subtilis 168 [5], partner 0.156 µg/mL | – | – | 0.935 | – | 0.863 | 0.762
S. aureus Newman [8], partner 0.039 µg/mL | – | – | 0.879 | – | 0.81 | 0.426
S. aureus Newman [8], partner 0.078 µg/mL | – | – | 0.854 | – | 0.808 | 0.412
S. aureus Newman [8], partner 0.156 µg/mL | – | – | 0.886 | – | 0.807 | 0.401
S. pneumoniae D39V [7], partner 0.65 µg/mL | 0.965 | 0.975 | – | 0.697 | – | –
S. pneumoniae D39V [7], partner 1.3 µg/mL | ≥ 1 | 0.966 | – | 0.708 | – | –
S. pneumoniae D39V [7], partner 2.6 µg/mL | 0.979 | 0.928 | – | 0.668 | – | –

fitness, B. subtilis 168 [5], one replicate
Conditions | first compound 1.25 µg/mL | first compound 2.5 µg/mL | first compound 5 µg/mL
partner 0.125 µg/mL | 0.964 | 0.97 | 0.955
partner 0.25 µg/mL | 0.865 | 0.847 | 0.882
partner 0.5 µg/mL | 0.91 | 0.867 | 0.801

Cn1c2cccc(=O)c-2nc2ccccc21 [Pyocyanin] + CN[C@@H]1[C@H](O[C@H]2[C@H](O[C@H]3[C@H](O)[C@@H](O)[C@H](N=C(N)N)[C@@H](O)[C@@H]3N=C(N)N)O[C@@H](C)[C@]2(O)C=O)O[C@@H](CO)[C@H](O)[C@H]1O [Streptomycin]
Conditions | Bliss interaction score
B. subtilis 168 [1] | 0.474
S. aureus DSM 20231 [4] | 0.109
S. aureus Newman [3] | -0.0643
S. pneumoniae D39V [2] | -0.103

fitness
Conditions | partner 1 µg/mL | partner 2 µg/mL | partner 4 µg/mL | partner 8 µg/mL
B. subtilis 168 [5], first compound 1.25 µg/mL | – | 0.938 | 0.765 | –
B. subtilis 168 [5], first compound 2.5 µg/mL | – | 0.929 | 0.879 | –
B. subtilis 168 [5], first compound 5 µg/mL | – | 0.818 | 0.791 | 0.686
S. aureus Newman [8], first compound 1.25 µg/mL | 0.891 | 0.844 | – | –
S. aureus Newman [8], first compound 2.5 µg/mL | 0.796 | 0.693 | – | –
S. aureus Newman [8], first compound 5 µg/mL | 0.427 | 0.308 | 0.253 | –
S. pneumoniae D39V [7], first compound 0.325 µg/mL | – | ≥ 1 | ≥ 1 | 0.935
S. pneumoniae D39V [7], first compound 0.65 µg/mL | – | 0.943 | 0.889 | 0.791
S. pneumoniae D39V [7], first compound 1.3 µg/mL | – | – | 0.734 | 0.592

fitness, S. pneumoniae D39V [7], one replicate
Conditions | first compound 0.325 µg/mL | first compound 0.65 µg/mL | first compound 1.3 µg/mL
partner 2 µg/mL | – | – | 0.756
partner 16 µg/mL | 0.649 | 0.61 | 0.475

CN(N=O)C(=O)N[C@@H](C=O)[C@@H](O)[C@H](O)[C@H](O)CO [Streptozotocin] + CN(C)c1cc(NC(=O)CNC(C)(C)C)c(O)c2c1C[C@H]1C[C@H]3[C@H](N(C)C)C(O)=C(C(N)=O)C(=O)[C@@]3(O)C(O)=C1C2=O [Tigecycline]
Conditions | Bliss interaction score
B. subtilis 168 [1] | -0.0405
S. aureus DSM 20231 [4] | 0.0681
S. aureus Newman [3] | 0.0493
S. pneumoniae D39V [2] | 0.0675

fitness, B. subtilis 168 [5], one replicate
Conditions | partner 0.039 µg/mL | partner 0.078 µg/mL | partner 0.125 µg/mL | partner 0.156 µg/mL | partner 0.25 µg/mL | partner 0.5 µg/mL
first compound 0.15 µg/mL | 0.936 | 0.975 | 0.958 | 0.877 | 0.892 | 0.921
first compound 0.3 µg/mL | ≥ 1 | ≥ 1 | 0.995 | 0.907 | 0.836 | 0.86
first compound 0.6 µg/mL | ≥ 1 | 0.956 | 0.961 | 0.99 | 0.83 | 0.904

fitness
Conditions | first compound 0.15 µg/mL | first compound 0.3 µg/mL | first compound 0.6 µg/mL | first compound 1.2 µg/mL | first compound 2.4 µg/mL | first compound 4.8 µg/mL
S. aureus Newman [8], partner 0.039 µg/mL | 0.829 | 0.711 | 0.555 | – | – | –
S. aureus Newman [8], partner 0.078 µg/mL | 0.837 | 0.685 | 0.504 | – | – | –
S. aureus Newman [8], partner 0.156 µg/mL | 0.904 | 0.711 | 0.511 | – | – | –
S. pneumoniae D39V [7], partner 0.65 µg/mL | – | – | – | 0.934 | 0.965 | 0.973
S. pneumoniae D39V [7], partner 1.3 µg/mL | – | – | – | 0.952 | 0.987 | 0.939
S. pneumoniae D39V [7], partner 2.6 µg/mL | – | – | – | 0.964 | 0.948 | 0.956

Cc1cc(NS(=O)(=O)c2ccc(N)cc2)no1 [Sulfamethoxazol] + CN(C)c1cc(NC(=O)CNC(C)(C)C)c(O)c2c1C[C@H]1C[C@H]3[C@H](N(C)C)C(O)=C(C(N)=O)C(=O)[C@@]3(O)C(O)=C1C2=O [Tigecycline]
Conditions | Bliss interaction score
B. subtilis 168 [1] | 0.0319
S. aureus DSM 20231 [4] | 0.108
S. aureus Newman [3] | 0.0399
S. pneumoniae D39V [2] | 0.0567

fitness, one replicate
Conditions | partner 0.039 µg/mL | partner 0.078 µg/mL | partner 0.125 µg/mL | partner 0.156 µg/mL | partner 0.25 µg/mL | partner 0.5 µg/mL
B. subtilis 168 [5], first compound 0.5 µg/mL | ≥ 1 | 0.989 | – | 0.959 | – | –
B. subtilis 168 [5], first compound 1 µg/mL | – | – | 0.963 | – | 0.923 | 0.903
B. subtilis 168 [5], first compound 2 µg/mL | – | – | 0.942 | – | 0.88 | 0.859
B. subtilis 168 [5], first compound 4 µg/mL | – | – | 0.922 | – | 0.899 | 0.925
S. aureus Newman [8], first compound 8 µg/mL | 0.856 | 0.865 | – | 0.934 | – | –

fitness
Conditions | first compound 1 µg/mL | first compound 2 µg/mL | first compound 4 µg/mL
B. subtilis 168 [5], partner 0.039 µg/mL | 0.917 | 0.92 | ≥ 1
B. subtilis 168 [5], partner 0.078 µg/mL | 0.903 | 0.921 | 0.97
B. subtilis 168 [5], partner 0.156 µg/mL | 0.911 | 0.897 | 0.982
S. aureus Newman [8], partner 0.039 µg/mL | 0.991 | 0.996 | ≥ 1
S. aureus Newman [8], partner 0.078 µg/mL | 0.982 | 0.999 | 0.966
S. aureus Newman [8], partner 0.156 µg/mL | 0.986 | 0.983 | ≥ 1
S. pneumoniae D39V [7], partner 0.65 µg/mL | 0.944 | 0.961 | 0.937
S. pneumoniae D39V [7], partner 1.3 µg/mL | 0.952 | 0.932 | 0.937
S. pneumoniae D39V [7], partner 2.6 µg/mL | 0.936 | 0.937 | 0.95
